The NIST ThermoML archive (doi:10.1021/je201334p)

How the values were obtained:
[1] = xn = mol fraction of the nth substance listed; conditions: 101 kPa, Liquid; for speed of sound: Sing-around technique in a fixed-path interferometer; for mass density: Vibrating tube method
[2] = refractive index (Na D-line) (dimensionless); xn = mol fraction of the nth substance listed; conditions: 101 kPa, Liquid, Standard Abbe refractometry

CCCC[N+]1(C)CCCC1.O=S(=O)([O-])C(F)(F)F [1-butyl-1-methylpyrrolidinium trifluoromethanesulfonate] + O
Conditions | mass density, 288.15 K [kg/m3] | mass density, 298.15 K [kg/m3] | mass density, 308.15 K [kg/m3] | refractive index, 288.15 K | refractive index, 298.15 K | refractive index, 308.15 K | speed of sound, 288.15 K [m/s] | speed of sound, 298.15 K [m/s] | speed of sound, 308.15 K [m/s]
[1], x2 = 0 | 1260.33 | 1252.98 | 1245.78 | – | – | – | 1484.6 | 1460.1 | 1436.7
[1], x2 = 0.0559 | 1259.04 | 1251.78 | 1244.55 | – | – | – | 1486.9 | 1462.7 | 1439.7
[1], x2 = 0.1084 | 1257.8 | 1250.57 | 1243.3 | – | – | – | 1489.1 | 1464.9 | 1441.5
[1], x2 = 0.2076 | 1255.12 | 1247.82 | 1240.51 | – | – | – | 1494.5 | 1470.5 | 1447.2
[1], x2 = 0.2997 | 1252.05 | 1244.68 | 1237.3 | – | – | – | 1500.7 | 1476.9 | 1453.6
[1], x2 = 0.408 | 1247.41 | 1239.95 | 1232.47 | – | – | – | 1509.8 | 1486.1 | 1462.8
[1], x2 = 0.5038 | 1241.91 | 1234.36 | 1226.79 | – | – | – | 1520.1 | 1496.5 | 1473.2
[1], x2 = 0.6003 | 1234.21 | 1226.56 | 1218.89 | – | – | – | 1533.3 | 1510 | 1486.7
[1], x2 = 0.7052 | 1221.39 | 1213.67 | 1205.88 | – | – | – | 1552.3 | 1529.6 | 1506.6
[1], x2 = 0.8095 | 1198.77 | 1191.13 | 1183.37 | – | – | – | 1576.2 | 1555.8 | 1534.6
[1], x2 = 0.9018 | 1155.9 | 1148.95 | 1141.73 | – | – | – | 1595.4 | 1582.1 | 1566.6
[1], x2 = 0.9533 | 1104.38 | 1098.73 | 1092.63 | – | – | – | 1592.8 | 1589.4 | 1582.8
[2], x2 = 0 | – | – | – | 1.43557 | 1.43289 | 1.43018 | – | – | –
[2], x2 = 0.0559 | – | – | – | 1.43506 | 1.4324 | 1.4297 | – | – | –
[2], x2 = 0.1084 | – | – | – | 1.43458 | 1.43187 | 1.42918 | – | – | –
[2], x2 = 0.2076 | – | – | – | 1.43345 | 1.43075 | 1.42808 | – | – | –
[2], x2 = 0.2997 | – | – | – | 1.43221 | 1.42951 | 1.42683 | – | – | –
[2], x2 = 0.408 | – | – | – | 1.43031 | 1.42762 | 1.4249 | – | – | –
[2], x2 = 0.5038 | – | – | – | 1.42809 | 1.42536 | 1.42262 | – | – | –
[2], x2 = 0.6003 | – | – | – | 1.42501 | 1.42221 | 1.41943 | – | – | –
[2], x2 = 0.7052 | – | – | – | 1.41987 | 1.41708 | 1.4143 | – | – | –
[2], x2 = 0.8095 | – | – | – | 1.41085 | 1.40814 | 1.40557 | – | – | –
[2], x2 = 0.9018 | – | – | – | 1.39398 | 1.39161 | 1.38937 | – | – | –
[2], x2 = 0.9533 | – | – | – | 1.37399 | 1.3721 | 1.37023 | – | – | –

CCCCCCn1cc[n+](C)c1.N#CN=C=[N-] [1-hexyl-3-methylimidazolium dicyanamide] + O
Conditions | mass density, 288.15 K [kg/m3] | mass density, 298.15 K [kg/m3] | mass density, 308.15 K [kg/m3] | refractive index, 288.15 K | refractive index, 298.15 K | refractive index, 308.15 K | speed of sound, 288.15 K [m/s] | speed of sound, 298.15 K [m/s] | speed of sound, 308.15 K [m/s]
[1], x2 = 0 | 1034.76 | 1028.56 | 1022.4 | – | – | – | 1713.4 | 1687.7 | 1662.7
[1], x2 = 0.0785 | 1034.48 | 1028.25 | 1022.07 | – | – | – | 1713.4 | 1688.1 | 1663.1
[1], x2 = 0.1191 | 1034.31 | 1028.07 | 1021.88 | – | – | – | 1713.8 | 1688.3 | 1663.3
[1], x2 = 0.2124 | 1033.88 | 1027.61 | 1021.38 | – | – | – | 1714.3 | 1688.9 | 1664
[1], x2 = 0.3055 | 1033.38 | 1027.08 | 1020.81 | – | – | – | 1715 | 1689.7 | 1664.8
[1], x2 = 0.4019 | 1032.76 | 1026.41 | 1020.08 | – | – | – | 1715.8 | 1690.6 | 1665.8
[1], x2 = 0.5096 | 1031.9 | 1025.46 | 1019.04 | – | – | – | 1717 | 1692.1 | 1667.6
[1], x2 = 0.6069 | 1030.86 | 1024.31 | 1017.78 | – | – | – | 1717.9 | 1693.4 | 1668.9
[1], x2 = 0.7123 | 1029.08 | 1022.4 | 1015.71 | – | – | – | 1717.1 | 1693.2 | 1669.1
[1], x2 = 0.8067 | 1026.34 | 1019.6 | 1012.81 | – | – | – | 1709.4 | 1687.6 | 1665.3
[1], x2 = 0.9031 | 1020.46 | 1014.13 | 1007.62 | – | – | – | 1672 | 1659.1 | 1644.5
[1], x2 = 0.9499 | 1014.51 | 1009.12 | 1003.34 | – | – | – | 1618.9 | 1618.6 | 1614.6
[2], x2 = 0 | – | – | – | 1.50729 | 1.50415 | 1.501 | – | – | –
[2], x2 = 0.0785 | – | – | – | 1.50599 | 1.50284 | 1.49962 | – | – | –
[2], x2 = 0.1191 | – | – | – | 1.50525 | 1.5021 | 1.49894 | – | – | –
[2], x2 = 0.2124 | – | – | – | 1.50333 | 1.50016 | 1.49698 | – | – | –
[2], x2 = 0.3055 | – | – | – | 1.50096 | 1.4978 | 1.49462 | – | – | –
[2], x2 = 0.4019 | – | – | – | 1.49784 | 1.49467 | 1.49131 | – | – | –
[2], x2 = 0.5096 | – | – | – | 1.49312 | 1.48997 | 1.48679 | – | – | –
[2], x2 = 0.6069 | – | – | – | 1.48721 | 1.48405 | 1.48083 | – | – | –
[2], x2 = 0.7123 | – | – | – | 1.47716 | 1.474 | 1.47076 | – | – | –
[2], x2 = 0.8067 | – | – | – | 1.46233 | 1.45924 | 1.4559 | – | – | –
[2], x2 = 0.9031 | – | – | – | 1.43179 | 1.42902 | 1.42645 | – | – | –
[2], x2 = 0.9499 | – | – | – | 1.40179 | 1.39945 | 1.39679 | – | – | –
